According to PubChem BioAssay (NCI):
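96-well plates; 48 h exposure; 5 concentrations. Endpoints by linear interpolation between flanking doses. Not reached: highest tested concentration assigned. At the GI50, growth is halved. TGI is the concentration that stops growth completely.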

Tests used:
Experiment in all cases: inhibition of tumour cell growth, NCI panel, 48 h
[1] = system: HL-60(TB) leukemia
[2] = system: M14 melanoma
[3] = system: KM12 colon
[4] = system: HCT-116 colon
[5] = system: SK-MEL-28 melanoma
[6] = system: OVCAR-3 ovarian
[7] = system: CAKI-1 renal
[8] = system: HT29 colon
[9] = system: NCI-H460 lung
[10] = system: MDA-MB-231 breast

| Compound | TGI [1] | TGI [2] | TGI [3] | TGI [4] | TGI [5] | TGI [6] | TGI [7] | TGI [8] | TGI [9] | GI50 [9] | GI50 [2] | GI50 [3] | GI50 [4] | GI50 [10] | TGI [10] | GI50 [6] | GI50 [8] | GI50 [5] | GI50 [7] |
| --- | --- | --- | --- | --- | --- | --- | --- | --- | --- | --- | --- | --- | --- | --- | --- | --- | --- | --- | --- |
| CNC(=O)OCc1[nH]ccc2c(C)c3nc4ccc(OC)cc4c3cc12 | 19 µM | > 100 µM | > 23.9 µM | > 100 µM | > 81 µM | > 67.8 µM | > 100 µM | > 100 µM | – | – | – | – | – | – | – | – | – | – | – |
| CC(=O)O[C@H]1CC[C@@]2(C)C(=CC[C@@H]3C2CC[C@]2(C)Nc4[nH]ncc4CC32)C1 (stereo partly specified) | 53.5 µM | 42.9 µM | 31.1 µM | 29.9 µM | > 100 µM | 36.5 µM | > 100 µM | 30.6 µM | 33.7 µM | – | – | – | – | – | – | – | – | – | – |
| O=C(O)c1ccc(C2C3C=CC(C3)C2[N+](=O)[O-])cc1 (stereo unspecified) | > 100 µM | > 100 µM | > 100 µM | – | > 100 µM | > 100 µM | > 100 µM | > 100 µM | > 100 µM | – | – | – | – | – | – | – | – | – | – |
| NC1=C(Cl)C(=O)c2ccccc2C1=O | 45.4 µM | 3.26 µM | 25.7 µM | 11.6 µM | 11.3 µM | 7.29 µM | 34.1 µM | 30.4 µM | 11 µM | – | – | – | – | – | – | – | – | – | – |
| COc1ccccc1NC(=O)C1=C(C)NC(C)=C(C(=O)Nc2ccccc2OC)C1c1cccc2c1OCO2 | > 100 µM | > 100 µM | > 100 µM | > 100 µM | > 100 µM | > 100 µM | > 100 µM | > 100 µM | > 100 µM | – | – | – | – | – | – | – | – | – | – |
| Cn1c(=O)oc2cc(C3CCC(=O)N3Cc3ccc(Cl)cc3)ccc21 (stereo unspecified) | > 100 µM | > 100 µM | > 100 µM | > 100 µM | > 100 µM | – | > 100 µM | > 100 µM | > 100 µM | – | – | – | – | – | – | – | – | – | – |
| Nc1nc(SCCC/C=C/I)nc2c1ncn2C1OC(CO)C(O)C1O (stereo unspecified) | > 202 µM | > 202 µM | > 202 µM | > 202 µM | > 202 µM | > 202 µM | > 202 µM | > 202 µM | > 202 µM | – | – | – | – | – | – | – | – | – | – |
| COC(=O)C1=Cc2c(cc(OC)c(OC)c2OC)[C@H](c2ccc(OC)c(OC)c2OC)C1C(=O)OC (stereo partly specified) | > 100 µM | > 100 µM | > 100 µM | > 100 µM | > 100 µM | > 100 µM | > 100 µM | > 100 µM | > 100 µM | – | – | – | – | – | – | – | – | – | – |
| C=C1C(=O)O[C@H]2C[C@@H]1CCC1(C)OC1CC/C(C)=C/CC[C@H]2C (stereo partly specified) | – | 31.9 µM | 43.1 µM | 31.5 µM | – | 35.1 µM | – | 34.3 µM | 33.1 µM | 17.1 µM | 18 µM | 22.2 µM | 17.7 µM | 17.7 µM | 32.2 µM | 19.1 µM | 20.1 µM | – | – |
| Clc1cc(Cl)cc(Nc2nc3ccccc3nc2-c2cccs2)c1 | > 100 µM | – | – | 72 µM | – | 72 µM | – | 26.9 µM | 41.6 µM | – | – | – | – | – | – | – | – | – | – |
| CN(CCN(C)C(=O)CCOS(C)(=O)=O)C(=O)CCOS(C)(=O)=O | > 100 µM | > 100 µM | > 100 µM | > 100 µM | > 100 µM | > 100 µM | > 100 µM | > 100 µM | > 100 µM | – | – | – | – | – | – | – | – | – | – |
| CCC[CH2][Sn]1([CH2]CCC)[O]C(=O)CN=Cc2ccccc2[O]1 | – | 1.37 µM | 2.18 µM | 2.09 µM | 1.1 µM | 1.82 µM | 0.631 µM | 2.34 µM | 2.6 µM | 1.28 µM | 0.368 µM | 0.695 µM | 0.71 µM | – | – | 0.545 µM | 1.08 µM | 0.343 µM | 0.182 µM |
| COc1cc(OC)cc(-c2cncn2-c2ccc(-c3nc4cc(OC)cc(OC)c4s3)cc2)c1 | – | – | > 100 µM | > 100 µM | > 100 µM | > 100 µM | > 100 µM | – | > 100 µM | 4.41 µM | – | 4.52 µM | 4.94 µM | 9.01 µM | > 100 µM | 2.87 µM | – | > 100 µM | 2.13 µM |
| O=C(O)CCCNS(=O)(=O)c1ccc2ccccc2c1 | > 100 µM | > 100 µM | > 100 µM | – | > 100 µM | > 100 µM | > 100 µM | > 100 µM | > 100 µM | – | – | – | – | – | – | – | – | – | – |
| O=C1C=CC(=O)c2c1ncc1c2nc2sccn21 | – | 39.8 µM | > 100 µM | 37.8 µM | 47.2 µM | 63.4 µM | 42.5 µM | > 100 µM | > 100 µM | 27.2 µM | 15.7 µM | > 100 µM | 12.5 µM | 14.6 µM | 39 µM | 20.3 µM | 37.6 µM | 22.9 µM | 19.5 µM |
| CCOC(=O)[C@H]1Nc2ccc(Cl)cc2[C@H]2c3ccccc3O[C@H]21 | – | > 100 µM | > 100 µM | > 100 µM | > 100 µM | > 100 µM | > 100 µM | > 100 µM | > 100 µM | – | – | – | – | – | – | – | – | – | – |
